{"source": "patent US10407410B2", "about": "“Pyridin-3-yl acetic acid derivatives as inhibitors of human immunodeficiency virus replication” (priority 2016, dated 2019)", "tested_on": "NL-RLuc virus (HIV)", "experiment": "Inhibition of HIV replication (NL-RLuc luciferase reporter virus in MT-2 cells)", "assay_type": "cell-based", "details": "Human immunodeficiency virus 1, MT2, 120 h", "text": "Inhibition of HIV Replication\nA recombinant NL-RLuc proviral clone was constructed in which a section of the nef gene from NL4-3 was replaced with the Renilla Luciferase gene. This virus is fully infectious and can undergo multiple cycles of replication in cell culture. In addition, the luciferous reporter provides a simple and easy method for quantitating the extent of virus growth and consequently, the antiviral activity of test compounds. The plasmid pNLRLuc contains the proviral NL-Rluc DNA cloned into pUC18 at the PvuII site. The NL-RLuc virus was prepared by transfection of 293T cells with the plasmid pNLRLuc. Transfections were performed using the LipofectAMINE PLUS kit from Invitrogen (Carlsbad, Calif.) according to the manufacturer and the virus generated was titered in MT-2 cells. For susceptibility analyses, the titrated virus was used to infect MT-2 cells in the presence of compound, and after 5 days of incubation, cells were processed and quantitated for virus growth by the amount of expressed luciferase. Assay media was RPMI 1640 supplemented with 10% heat inactivated fetal bovine serum (FBS), 100 units/ml penicillin G/100 units/ml streptomycin, 10 mM HEPES buffer pH 7.55 and 2 mM L-glutamine. The results from at least 2 experiments were used to calculate the EC50 values. Luciferase was quantitated using the Dual Luciferase kit from Promega (Madison, Wis.). Susceptibility of viruses to compounds was determined by incubation in the presence of serial dilutions of the compound. The 50% effective concentration (EC50) was calculated by using the exponential form of the median effect equation where (Fa)=1/[1+(ED50/drug conc.)^m] (Johnson V A, Byington R T. Infectivity Assay. In Techniques in HIV Research. ed. Aldovini A, Walker B D. 71-76. New York: Stockton Press. 1990).", "data": [{"smiles": "Cc1ccc(C[C@H]2CCc3cc(-c4c(C)nc(C)c([C@H](OC(C)(C)C)C(=O)O)c4N4CCC(C)(C)CC4)ccc3O2)c(F)c1", "note": "[Example 31, (S)-2-tert-Butoxy-2-(4-(4,4-dimethylpiperidin-1-yl)-5-((R)-2-(2-fluoro-4-methylbenzyl)chroman-6-yl)-2,6-dimethylpyridin-3-yl)acetic acid]", "values": [{"measurement": "EC50", "value": 3, "unit": "nM"}]}, {"smiles": "Cc1nc(C)c([C@H](OC(C)(C)C)C(=O)O)c(N2CCC(C)(C)CC2)c1-c1ccc2c(c1)CC[C@@H](Cc1ccccc1)O2", "note": "[Example 32, (S)-2-(5-((S)-2-Benzylchroman-6-yl)-4-(4,4-dimethylpiperidin-1-yl)-2,6-dimethylpyridin-3-yl)-2-tert-butoxyacetic acid]", "values": [{"measurement": "EC50", "value": 2, "unit": "nM"}]}, {"smiles": "Cc1nc(CO)c(-c2ccc3c(c2)CC[C@@H](Cc2ccccc2)O3)c(N2CCC(C)(C)CC2)c1[C@H](OC(C)(C)C)C(=O)O", "note": "[Example 33, (S)-2-(5-((S)-2-Benzylchroman-6-yl)-4-(4,4-dimethylpiperidin-1-yl)-6-(hydroxymethyl)-2-methylpyridin-3-yl)-2-tert-butoxyacetic acid]", "values": [{"measurement": "EC50", "value": 7, "unit": "nM"}]}, {"smiles": "Cc1nc(C)c([C@H](OC(C)(C)C)C(=O)O)c(N2CCC(C)(C)CC2)c1-c1ccc2c(c1)CC[C@@H](Cc1ccc(F)cc1)O2", "note": "[Example 34, (S)-2-tert-Butoxy-2-(4-(4,4-dimethylpiperidin-1-yl)-5-((S)-2-(4-fluorobenzyl)chroman-6-yl)-2,6-dimethylpyridin-3-yl)acetic acid]", "values": [{"measurement": "EC50", "value": 2, "unit": "nM"}]}, {"smiles": "Cc1nc(C)c([C@H](OC(C)(C)C)C(=O)O)c(N2CCC(C)(C)CC2)c1-c1ccc2c(c1)CC[C@H](Cc1ccc(F)cc1)O2", "note": "[Example 35, (S)-2-tert-Butoxy-2-(4-(4,4-dimethylpiperidin-1-yl)-5-((R)-2-(4-fluorobenzyl)chroman-6-yl)-2,6-dimethylpyridin-3-yl)acetic acid]", "values": [{"measurement": "EC50", "value": 3, "unit": "nM"}]}, {"smiles": "Cc1nc(CO)c(-c2ccc3c(c2)CC[C@@H](Cc2ccc(F)cc2)O3)c(N2CCC(C)(C)CC2)c1[C@H](OC(C)(C)C)C(=O)O", "note": "[Example 36, (S)-2-(tert-Butoxy)-2-(4-(4,4-dimethylpiperidin-1-yl)-5-((S)-2-(4-fluorobenzyl)chroman-6-yl)-6-(hydroxymethyl)-2-methylpyridin-3-yl)acetic acid]", "values": [{"measurement": "EC50", "value": 2, "unit": "nM"}]}, {"smiles": "Cc1nc(CO)c(-c2ccc3c(c2)CC[C@H](Cc2ccc(F)cc2)O3)c(N2CCC(C)(C)CC2)c1[C@H](OC(C)(C)C)C(=O)O", "note": "[Example 37, (S)-2-tert-Butoxy-2-(4-(4,4-dimethylpiperidin-1-yl)-5-((R)-2-(4-fluorobenzyl)chroman-6-yl)-6-(hydroxymethyl)-2-methylpyridin-3-yl)acetic acid]", "values": [{"measurement": "EC50", "value": 1, "unit": "nM"}]}, {"smiles": "Cc1nc(C)c([C@H](OC(C)(C)C)C(=O)O)c(N2CCC(C)(C)CC2)c1-c1ccc2c(c1)CC[C@](C)(Cc1ccc(F)cc1)O2", "note": "[Example 38, (S)-2-tert-Butoxy-2-(4-(4,4-dimethylpiperidin-1-yl)-5-((R)-2-(4-fluorobenzyl)-2-methylchroman-6-yl)-2,6-dimethylpyridin-3-yl)acetic acid]", "values": [{"measurement": "EC50", "value": 4, "unit": "nM"}]}, {"smiles": "Cc1nc(C)c([C@H](OC(C)(C)C)C(=O)O)c(N2CCC(C)(C)CC2)c1-c1ccc2c(c1)CC[C@@](C)(Cc1ccc(F)cc1)O2", "note": "[Example 39, (S)-2-tert-Butoxy-2-(4-(4,4-dimethylpiperidin-1-yl)-5-((S)-2-(4-fluorobenzyl)-2-methylchroman-6-yl)-2,6-dimethylpyridin-3-yl)acetic acid]", "values": [{"measurement": "EC50", "value": 3, "unit": "nM"}]}, {"smiles": "Cc1nc(C)c([C@H](OC(C)(C)C)C(=O)O)c(N2CCC(C)(C)CC2)c1-c1ccc2c(c1)CCC(COc1ccccc1F)O2", "note": "(stereo partly drawn) [Example 40, (2S)-2-tert-Butoxy-2-(4-(4,4-dimethylpiperidin-1-yl)-5-(2-((2-fluorophenoxy)methyl)chroman-6-yl)-2,6-dimethylpyridin-3-yl)acetic acid]", "values": [{"measurement": "EC50", "value": 4, "unit": "nM"}]}, {"smiles": "Cc1nc(C)c([C@H](OC(C)(C)C)C(=O)O)c(N2CCC(C)(C)CC2)c1-c1ccc2c(c1)CCC(COc1cccc(F)c1F)O2", "note": "(stereo partly drawn) [Example 41, (2S)-2-tert-Butoxy-2-(5-(2-((2,3-difluorophenoxy)methyl)chroman-6-yl)-4-(4,4-dimethylpiperidin-1-yl)-2,6-dimethylpyridin-3-yl)acetic acid]", "values": [{"measurement": "EC50", "value": 3, "unit": "nM"}]}, {"smiles": "Cc1nc(C)c([C@H](OC(C)(C)C)C(=O)O)c(N2CCC(C)(C)CC2)c1-c1ccc2c(c1)CCC(c1ccc(F)cc1)O2", "note": "(stereo partly drawn) [Example 42, (2S)-2-tert-Butoxy-2-(4-(4,4-dimethylpiperidin-1-yl)-5-(2-(4-fluorophenyl)chroman-6-yl)-2,6-dimethylpyridin-3-yl)acetic acid]", "values": [{"measurement": "EC50", "value": 7, "unit": "nM"}]}, {"smiles": "Cc1nc(CO)c(-c2ccc3c(c2)CCC(c2ccc(F)cc2)O3)c(N2CCC(C)(C)CC2)c1[C@H](OC(C)(C)C)C(=O)O", "note": "(stereo partly drawn) [Example 43, (2S)-2-tert-Butoxy-2-(4-(4,4-dimethylpiperidin-1-yl)-5-(2-(4-fluorophenyl)chroman-6-yl)-6-(hydroxymethyl)-2-methylpyridin-3-yl)acetic acid]", "values": [{"measurement": "EC50", "value": 7, "unit": "nM"}]}, {"smiles": "Cc1cccc(C2CCc3cc(-c4c(C)nc(C)c([C@H](OC(C)(C)C)C(=O)O)c4N4CCC(C)(C)CC4)ccc3O2)n1", "note": "(stereo partly drawn) [Example 44, (2S)-2-tert-Butoxy-2-(4-(4,4-dimethylpiperidin-1-yl)-2,6-dimethyl-5-(2-(6-methylpyridin-2-yl)chroman-6-yl)pyridin-3-yl)acetic acid]", "values": [{"measurement": "EC50", "value": 8, "unit": "nM"}]}, {"smiles": "Cc1cccc(C2CCc3cc(-c4c(CO)nc(C)c([C@H](OC(C)(C)C)C(=O)O)c4N4CCC(C)(C)CC4)ccc3O2)n1", "note": "(stereo partly drawn) [Example 45, (2S)-2-tert-Butoxy-2-(4-(4,4-dimethylpiperidin-1-yl)-6-(hydroxymethyl)-2-methyl-5-(2-(6-methylpyridin-2-yl)chroman-6-yl)pyridin-3-yl)acetic acid]", "values": [{"measurement": "EC50", "value": 7, "unit": "nM"}]}]}
